Measured values from BindingDB's records for doi:10.1016/j.bmcl.2012.10.040 (Pfizer, 2013).

Legend:
[1] = target: T1, Prostaglandin G/H synthase 2 (Homo sapiens, UniProt P35354); assay: Inhibition of COX2 in human fetal fibroblast assessed as inhibition of IL-1beta-mediated PGE2 production after 50 mins by ELISA
T1 sequence (P35354 whole entry): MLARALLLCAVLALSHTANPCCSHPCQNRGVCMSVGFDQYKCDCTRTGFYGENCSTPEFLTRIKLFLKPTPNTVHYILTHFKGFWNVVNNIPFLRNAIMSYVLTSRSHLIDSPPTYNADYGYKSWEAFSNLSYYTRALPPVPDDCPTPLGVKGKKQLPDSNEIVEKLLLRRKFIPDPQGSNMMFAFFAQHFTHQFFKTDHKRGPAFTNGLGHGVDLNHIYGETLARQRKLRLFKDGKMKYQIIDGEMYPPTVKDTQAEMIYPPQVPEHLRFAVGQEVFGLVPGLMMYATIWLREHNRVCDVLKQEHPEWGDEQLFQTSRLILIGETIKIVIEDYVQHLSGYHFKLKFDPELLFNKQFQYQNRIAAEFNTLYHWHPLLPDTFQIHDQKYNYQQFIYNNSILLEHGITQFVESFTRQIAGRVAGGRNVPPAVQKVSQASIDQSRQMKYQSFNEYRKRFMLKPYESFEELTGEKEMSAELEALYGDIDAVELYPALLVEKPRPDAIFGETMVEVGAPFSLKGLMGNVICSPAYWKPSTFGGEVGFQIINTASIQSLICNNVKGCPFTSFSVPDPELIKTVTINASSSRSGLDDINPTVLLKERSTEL

[2] = target: T1, Prostaglandin G/H synthase 2; assay: Inhibition of COX2 in human whole blood assessed as PGE2 level incubated for 15 mins prior to substrate addition measured after 10 mins by ELISA
[3] = target: T2, Prostaglandin G/H synthase 2 (Canis lupus familiaris, UniProt Q8SPQ9); assay: Inhibition of COX2 in dog whole blood assessed as LPS-induced PGE2 production
T2 sequence (Q8SPQ9 whole entry): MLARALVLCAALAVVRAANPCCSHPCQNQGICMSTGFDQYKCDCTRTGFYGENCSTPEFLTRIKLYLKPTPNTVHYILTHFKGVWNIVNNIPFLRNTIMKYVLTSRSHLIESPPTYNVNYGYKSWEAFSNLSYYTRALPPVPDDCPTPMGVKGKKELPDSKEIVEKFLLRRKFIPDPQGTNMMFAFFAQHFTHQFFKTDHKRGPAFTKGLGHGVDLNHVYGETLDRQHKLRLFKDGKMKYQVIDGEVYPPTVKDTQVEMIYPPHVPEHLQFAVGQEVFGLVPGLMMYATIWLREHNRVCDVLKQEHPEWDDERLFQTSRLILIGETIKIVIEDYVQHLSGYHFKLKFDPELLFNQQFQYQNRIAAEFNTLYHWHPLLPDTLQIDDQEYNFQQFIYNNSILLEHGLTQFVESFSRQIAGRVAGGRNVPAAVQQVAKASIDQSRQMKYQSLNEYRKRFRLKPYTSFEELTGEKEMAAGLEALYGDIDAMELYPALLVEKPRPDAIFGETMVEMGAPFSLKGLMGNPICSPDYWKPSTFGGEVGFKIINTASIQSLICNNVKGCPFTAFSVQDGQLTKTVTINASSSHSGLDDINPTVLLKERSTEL

[4] = target: T1, Prostaglandin G/H synthase 2; assay: Inhibition of COX2 in human whole blood assessed as LPS-induced PGE2 production incubated 15 mins prior to LPS challenge measured after 24 hrs by EIA
[5] = target: T3, Prostaglandin G/H synthase 2 (Rattus norvegicus, UniProt P35355); assay: Inhibition of COX2 in rat synovial fibroblast assessed as inhibition of IL-1-mediated PGE2 production
T3 sequence (P35355 whole entry): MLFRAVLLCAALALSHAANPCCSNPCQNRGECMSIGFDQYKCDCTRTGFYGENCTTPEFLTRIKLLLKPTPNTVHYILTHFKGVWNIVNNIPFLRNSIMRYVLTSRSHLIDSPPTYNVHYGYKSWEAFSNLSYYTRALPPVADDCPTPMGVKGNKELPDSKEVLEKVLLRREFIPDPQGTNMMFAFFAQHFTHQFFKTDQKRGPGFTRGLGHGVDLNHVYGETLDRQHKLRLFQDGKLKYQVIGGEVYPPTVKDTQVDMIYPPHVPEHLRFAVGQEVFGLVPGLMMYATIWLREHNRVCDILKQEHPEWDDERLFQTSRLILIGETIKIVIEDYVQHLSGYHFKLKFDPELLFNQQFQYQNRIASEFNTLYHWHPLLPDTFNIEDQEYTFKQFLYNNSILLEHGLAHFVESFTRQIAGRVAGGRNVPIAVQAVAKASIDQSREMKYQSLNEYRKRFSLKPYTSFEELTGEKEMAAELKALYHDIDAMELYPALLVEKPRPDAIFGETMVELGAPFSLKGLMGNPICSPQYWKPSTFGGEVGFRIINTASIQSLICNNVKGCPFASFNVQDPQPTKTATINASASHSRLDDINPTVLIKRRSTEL

Structure (SMILES)	IC50 [1] [nM]	IC50 [2] [nM]	IC50 [3] [nM]	IC50 [4] [nM]	IC50 [5] [nM]
O=C(N[C@H]1CCC[C@@H]1COc1ccccc1)C1CCN(c2nc3cc(Cl)ccc3o2)CC1	85	> 33600			
O=C(NC1CCCC1)C1CCN(c2nc3cc(Cl)ccc3o2)CC1	1010				
O=C(N[C@@H]1CCC[C@H]1OCc1ccccc1)C1CCN(c2nc3cc(Cl)ccc3o2)CC1	296	27400			
O=C(N[C@H]1CC[C@@H](CO)CC1)C1CCN(c2nc3cc(Cl)ccc3o2)CC1	1260	11100			
O=C(N[C@H]1CC[C@H](CO)CC1)C1CCN(c2nc3cc(Cl)ccc3o2)CC1	> 10000				
O=C(N[C@H]1CCC[C@@H]1OCc1ccccc1)C1CCN(c2nc3cc(Cl)ccc3o2)CC1	35	7560	1230	934	> 30000
O=C(N[C@H]1CCC[C@H]1OCc1ccccc1)C1CCN(c2nc3cc(Cl)ccc3o2)CC1	618	76600			
